Reference: US8207180B2, “Tricyclic indoles and (4,5-dihydro) indoles” (Nerviano Medical Sciences S.R.L., priority 2006, dated 2012)
Counter-ions that a name gives are not always drawn.

biological target: AKT-1 (Homo sapiens, UniProt P31749); assay: AKT kinase inhibition assay: Dowex technique (AKT1, Aktide substrate); type: biochemical; settings: AKT1 5 nM, Aktide 30 μM, ATP 132 μM, 60 min rt
From the text: Method for AKT Kinase Inhibition Assay: Dowex Technique
General Principle for Kinase Inhibition Assays
Specific peptide or protein substrates are trans-phosphorylated by their specific serine -threonine or tyrosine kinase, in the presence of ATP traced with ^33Pγ-ATP, and in the presence of their own optimal buffer and cofactors.
At the end of the phosphorylation reaction, more than 98% cold ATP and radioactive ATP is captured by an excess of the ion exchange dowex resin; the resin then settles down to the bottom of the reaction plate by gravity.
Supernatant, containing the phosphorylated substrate, is subsequently withdrawn and transferred into a counting plate, then evaluated by β-counting.
• TRIS 50 mM, pH 7.5 • MgCl2 10 mM • DTT 1 mM • NaVO3 […] • BSA 0.2 mg/ml • Assay conditions (final concentrations) for AKT1 • Enzyme concentration (AKT1)=5 nM • Substrate concentration (Aktide, 14 residues peptide, from PRIMM)=30 μM • ATP=132 μM • ^33P-γ-ATP=0.88 nM Robotized Dowex Assay
The “test” mixture consisted of: • 1) 3× Enzyme mix (done in Kinase Buffer 3×), 5 μl/well • 2) 3× substrate and ATP mix (done in DDH2O), together with ^33P-γ-ATP, 5 μl/well • 3) 3× test compounds (diluted into DDH2O-3% DMSO)-5 μl/well Dilution of Compounds
Test compounds are received as 100% DMSO solution at the indicated concentrations: • i—for % inhibition studies, individual dilution plates at 1 mM, 100 μM and 10 μM are prepared in 100% DMSO, then diluted at a 3× concentration (30, 3 and 0.3 μM) in DDH2O, 3% DMSO. A Multimek 96 (Beckman) is used for dilutions and compound pipetting into the test plates • ii—for IC50 determination, compounds are received as 1 mM, 100% DMSO solutions, plated into the first column of a microtiter plate (A1 to G1), 100 μl.
Well H1 is left empty for the internal standard inhibitor, staurosporine.
A Biomek 2000 (Beckman) is used for serial 1:3 dilutions in water, 3% DMSO, from column A1 to A10 and for all the seven compounds in the plate. In a standard experiment, the highest concentration of all compounds is 30 μM, then diluted in the final test mixture down to 10 μM.
384-well plates, V bottom (test plates) are prepared with 5 μl of the compound dilution (3×) and then placed onto a PlateTrak 12 robotized station (Perkin Elmer; the robot has one 384-tips pipetting head for starting the assay plus one 96-tips head for dispensing the resin) together with one reservoir for the Enzyme mix (3×) and one for the ATP mix (3×).
At the start of the run, the robot aspirates 5 μl of ATP mix, makes an air gap inside the tips (3 μl) and aspirates 5 μl of AKT mix. The following dispensation into the plates allows the kinase reaction to start upon 3 cycles of mixing, done by the robot itself.
The robot incubates the plates for 60 minutes at room temperature, and then stops the reaction by pipetting 70 μl of dowex resin suspension into the reaction mix. Three cycles of mixing are done immediately after the addition of the resin.
Another mixing cycle is performed after all the plates are stopped, this time using normal tips: the plates are then allowed to rest for about one hour in order to maximize ATP capture. At this point, 20 μl of the supernatant are transferred into 384-Optiplates (Perkin-Elmer), with 70 μl of Microscint 40 (Perkin-Elmer); after 5 min of orbital shaking the plates are read on a Perkin-Elmer Top Count radioactivity counter.
Data are analysed by an internally customized version of the SW package “Assay Explorer” that provides either % inhibition for primary assays or sigmoidal fittings of the ten-dilutions curves for IC50 determination, for the secondary assays/hit confirmation routines.

Sequence of AKT-1 (P31749 whole entry): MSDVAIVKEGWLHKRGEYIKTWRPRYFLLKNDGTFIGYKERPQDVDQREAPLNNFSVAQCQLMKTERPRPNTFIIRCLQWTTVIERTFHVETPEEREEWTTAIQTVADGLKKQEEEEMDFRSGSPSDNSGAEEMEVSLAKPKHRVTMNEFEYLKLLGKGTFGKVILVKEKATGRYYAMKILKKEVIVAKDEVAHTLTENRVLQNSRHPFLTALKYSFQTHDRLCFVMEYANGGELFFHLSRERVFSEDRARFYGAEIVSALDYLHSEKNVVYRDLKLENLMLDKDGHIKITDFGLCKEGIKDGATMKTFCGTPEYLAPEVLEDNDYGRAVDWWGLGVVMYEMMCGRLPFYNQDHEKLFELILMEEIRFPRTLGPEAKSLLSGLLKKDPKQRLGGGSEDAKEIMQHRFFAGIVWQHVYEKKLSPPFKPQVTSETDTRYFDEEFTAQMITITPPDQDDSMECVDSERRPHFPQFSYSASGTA

**Q.** Which IC50 does the source give for `NC[C@H](Cc1ccccc1)NC(=O)c1cn(CC(F)(F)F)c2c1CCc1cnccc1-2` [E14, N-[(1S)-2-Amino-1-benzylethyl]-1-(2,2,2-trifluoroethyl)-4,5-dihydro-1H-pyrrolo[2,3-f]isoquinoline-3-carboxamide] here?
**A.** < 500 nM

**Q.** `NC[C@H](Cc1ccccc1)NC(=O)c1c[nH]c2c1CCc1cnccc1-2` [E15, N-[(1S)-2-Amino-1-benzylethyl]-4,5-dihydro-1H-pyrrolo[2,3-f]isoquinoline-3-carboxamide] was tested. Which IC50 did it give?
**A.** < 500 nM

**Q.** Which IC50 does the source give for `CC(C)(C)OC(=O)NC[C@H](Cc1ccccc1)NC(=O)c1c[nH]c2c1CCc1cnccc1-2` [E11, tert-Butyl {(2S)-2-[(4,5-dihydro-1H-pyrrolo[2,3-f]isoquinolin-3-ylcarbonyl)amino]-3-phenylpropyl}carbamate] here?
**A.** < 500 nM

**Q.** For `NC[C@H](Cc1ccccc1)NC(=O)c1cc2c(n1CC(F)(F)F)-c1ccncc1CC2` [L9, N-[(1S)-2-Amino-1-benzylethyl]-1-(2,2,2-trifluoroethyl)-4,5-dihydro-1H-pyrrolo[2,3-f]isoquinoline-2-carboxamide], which IC50 is on record?
**A.** < 500 nM

**Q.** Which IC50 does the source give for `NC[C@H](Cc1ccccc1)NC(=O)c1cn(CCO)c2c1CCc1cnccc1-2` [E21, N-[(1S)-2-Amino-1-benzylethyl]-1-(2-hydroxyethyl)-4,5-dihydro-1H-pyrrolo[2,3-f]isoquinoline-3-carboxamide] here?
**A.** < 500 nM

**Q.** With `NC[C@H](Cc1ccccc1)NC(=O)c1cc2c([nH]1)-c1ccncc1CC2` [L6, N-[(1S)-2-Amino-1-benzylethyl]-4,5-dihydro-1H-pyrrolo[2,3-f]isoquinoline-2-carboxamide] as the compound, how does the IC50 read?
**A.** < 500 nM

**Q.** For `CC(C)(C)OC(=O)NC[C@H](Cc1ccccc1)NC(=O)c1cn(CC(F)(F)F)c2c1CCc1cnccc1-2` [E12, Tert-Butyl [(2S)-3-phenyl-2-({[1-(2,2,2-trifluoroethyl) -4,5-dihydro-1H-pyrrolo[2,3-f]isoquinolin-3-yl]carbonyl}amino)propyl]carbamate], which IC50 is on record?
**A.** < 500 nM

biological target: Cdc7/Dbf4 (Homo sapiens, UniProt O00311); assay: Inhibition assay of Cdc7/Dbf4 activity (Dowex resin capture, 33P-ATP, MCM2 substrate); type: biochemical; settings: MCM2 6 μM, ATP 2 μM, enzyme 2 nM, 60 min rt
Description: Inhibition Assay of Cdc7 Activity
The inhibiting activity of putative Cdc7 inhibitors and the potency of selected compounds is determined through a method of assay based on the use of Dowex resin capture technology.
The assay consists of the transfer of radioactivity labeled phosphate moiety by the kinase to an acceptor substrate. The resulting 33P-labeled product is separated from unreacted tracer, transferred into a scintillation cocktail and light emitted is measured in a scintillation counter.
The inhibition assay of Cdc7/Dbf4 activity is performed according to the following protocol.
The MCM2 substrate is trans-phosphorylated by the Cdc7/Dbf4 complex in the presence of ATP traced with γ^33-ATP. The reaction is stopped by addition of Dowex resin in the presence of formic acid. Dowex resin particles capture unreacted γ^33-ATP and drag it to the bottom of the well while ^33P phosphorylated MCM2 substrate remains in solution. The supernatant is collected, transferred into Optiplate plates and the extent of substrate phosphorylation is evaluated by β counting.
The inhibition assay of Cdc7/Dbf4 activity was performed in 96 wells plate according to the following protocol.
To each well of the plate were added: • 10 μl test compound (10 increasing concentrations in the nM to uM range to generate a dose-response curve). The solvent for test compounds contained 3% DMSO. (final concentration 1%) • 10 μl substrate MCM2 (6 μM final concentration), a mixture of cold ATP (2 μM final concentration) and radioactive ATP (1/5000 molar ratio with cold ATP). • 10 μl enzyme (Cdc7/Dbf4, 2 nM final concentration) that started the reaction. The buffer of the reaction consisted in 50 mM HEPES pH 7.9 containing 15 mM MgCl2, 2 mM DTT, 3 uM NaVO3, 2 mM glycerophosphate and 0.2 mg/ml BSA. • After incubation for 60 minutes at room temperature, the reaction was stopped by adding to each well 150 μl of Dowex resin in the presence of 150 mM formic acid. After other 60 min incubation, 50 μl of suspension were withdrawn and transferred into 96-well OPTIPLATEs containing 150 μl of MicroScint 40 (Packard); after 5-10 minutes shaking the plates were read for 1 min in a Packard TOP-Count radioactivity reader.
IC50 determination: inhibitors were tested at different concentrations ranging from 0.0005 to 10 μIM. Experimental data were analyzed by the computer program Assay Explorer using the four parameter logistic equation: y=bottom+(top−bottom)/(1+10^((log IC50−x)*slope)) where x is the logarithm of the inhibitor concentration, y is the response; y starts at bottom and goes to top with a sigmoid shape.

Sequence of Cdc7/Dbf4 (O00311 whole entry): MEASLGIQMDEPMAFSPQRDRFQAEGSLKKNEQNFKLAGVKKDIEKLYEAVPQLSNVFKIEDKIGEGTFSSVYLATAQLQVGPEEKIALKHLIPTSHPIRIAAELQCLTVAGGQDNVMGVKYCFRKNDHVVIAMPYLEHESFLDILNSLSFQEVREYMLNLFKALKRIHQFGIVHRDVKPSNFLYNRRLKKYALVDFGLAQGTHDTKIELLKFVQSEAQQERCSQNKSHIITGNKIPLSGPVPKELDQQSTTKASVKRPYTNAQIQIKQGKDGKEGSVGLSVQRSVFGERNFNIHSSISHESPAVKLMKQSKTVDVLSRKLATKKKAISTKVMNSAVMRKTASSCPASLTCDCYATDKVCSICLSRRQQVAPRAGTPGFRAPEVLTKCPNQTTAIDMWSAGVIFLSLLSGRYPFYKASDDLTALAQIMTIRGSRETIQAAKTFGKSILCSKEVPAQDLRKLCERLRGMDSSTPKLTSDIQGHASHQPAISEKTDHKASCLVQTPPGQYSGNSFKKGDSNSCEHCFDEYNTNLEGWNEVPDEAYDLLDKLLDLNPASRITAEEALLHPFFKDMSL
Sequence of Cdc7/Dbf4 (Q9UBU7 whole entry partner): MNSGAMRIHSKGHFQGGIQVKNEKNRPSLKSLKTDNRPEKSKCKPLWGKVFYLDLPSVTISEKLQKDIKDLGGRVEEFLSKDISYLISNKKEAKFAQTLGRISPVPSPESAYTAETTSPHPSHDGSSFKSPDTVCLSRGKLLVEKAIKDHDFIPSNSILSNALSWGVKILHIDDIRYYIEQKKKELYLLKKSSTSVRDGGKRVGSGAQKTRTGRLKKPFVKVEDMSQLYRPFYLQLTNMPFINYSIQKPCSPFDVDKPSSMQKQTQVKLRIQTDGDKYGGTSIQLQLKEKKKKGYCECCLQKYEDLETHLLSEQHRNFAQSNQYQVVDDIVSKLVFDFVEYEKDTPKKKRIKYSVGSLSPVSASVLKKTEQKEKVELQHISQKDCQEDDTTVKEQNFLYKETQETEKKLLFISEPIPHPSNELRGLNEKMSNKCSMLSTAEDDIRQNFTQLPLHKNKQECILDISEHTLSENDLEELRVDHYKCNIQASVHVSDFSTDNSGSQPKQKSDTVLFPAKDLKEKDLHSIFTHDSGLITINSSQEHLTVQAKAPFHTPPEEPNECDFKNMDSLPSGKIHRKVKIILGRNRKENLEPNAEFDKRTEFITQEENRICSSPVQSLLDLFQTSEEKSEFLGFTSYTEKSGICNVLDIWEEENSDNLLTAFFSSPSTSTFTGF

**Q.** Which IC50 does the source give for `O=C(O)c1cn(CC(F)(F)F)c2c1CCc1cnccc1-2` [E7, 1-(2,2,2-Trifluoroethyl)-4,5-dihydro-1H-pyrrolo[2,3-f]isoquinoline-3-carboxylic acid] here?
**A.** < 1000 nM

**Q.** How did the IC50 turn out when `Cn1cc(C(=O)O)c2ccc3[nH]ncc3c21` [B2, 1-Methyl-1,6-dihydro-1,6,7-triaza-as-indacene-3-carboxylic acid] was run?
**A.** < 100 nM

**Q.** For `O=Cc1c(-c2ccc(N3CCOCC3)cc2)[nH]c2c1ccc1cnccc12` [G7, 2-(4-Morpholin-4-yl-phenyl)-1H-pyrrolo[2,3-f]isoquinoline-3-carbaldehyde], which IC50 is on record?
**A.** < 1000 nM

**Q.** Which IC50 does the source give for `NC(=O)c1c(-c2ccccc2)[nH]c2c1ccc1cnccc12` [G3, 2-Phenyl-1H-pyrrolo[2,3-f]isoquinoline-3-carboxylic acid amide] here?
**A.** < 100 nM

**Q.** Which IC50 does the source give for `O=C(O)c1cc2c([nH]1)-c1ccncc1CC2` [L2, 4,5-Dihydro-1H-pyrrolo[2,3-f]isoquinoline-2-carboxylic acid] here?
**A.** < 1000 nM

**Q.** How did the IC50 turn out when `Cn1cc(C(N)=O)c2ccc3n[nH]cc3c21` [B3, 1-Methyl-1,7-dihydro-1,6,7-triaza-as-indacene-3-carboxylic acid amide] was run?
**A.** < 100 nM

**Q.** With `NC(=O)c1c[nH]c2c1CCc1cnccc1-2` [E10, 4,5-Dihydro-1H-pyrrolo[2,3-f]isoquinoline-3-carboxylic acid amide] as the compound, how does the IC50 read?
**A.** < 1000 nM

**Q.** How did the IC50 turn out when `Cn1c(-c2ccccc2)c(C(N)=O)c2ccc3n[nH]cc3c21` [C2, 1-Methyl-2-phenyl-1,7-dihydro-1,6,7-triaza-as-indacene-3-carboxylic acid amide] was run?
**A.** < 100 nM

**Q.** With `O=C(O)c1c(-c2ccc(Br)cc2)[nH]c2c1ccc1cnccc12` [G5, 2-(4-Bromo-phenyl)-1H-pyrrolo[2,3-f]isoquinoline-3-carboxylic acid] as the compound, how does the IC50 read?
**A.** < 100 nM

**Q.** `NC(=O)c1c(-c2ccncc2)[nH]c2c1ccc1cnccc12` [H3, 2-Pyridin-4-yl-1H-pyrrolo[2,3-f]isoquinoline-3-carboxylic acid amide] was tested. Which IC50 did it give?
**A.** < 100 nM

**Q.** Which IC50 does the source give for `NC(=O)c1c(-c2ccc(Br)cc2)[nH]c2c1ccc1cnccc12` [G6, 2-(4-Bromo-phenyl)-1H-pyrrolo[2,3-f]isoquinoline-3-carboxylic acid amide] here?
**A.** < 100 nM

**Q.** Which IC50 does the source give for `O=Cc1c(-c2ccncc2)[nH]c2c1ccc1cnccc12` [H1, 2-Pyridin-4-yl-1H-pyrrolo[2,3-f]isoquinoline-3-carbaldehyde] here?
**A.** < 100 nM

**Q.** Which IC50 does the source give for `CCOC(=O)c1c(Br)[nH]c2c1CCc1cnccc1-2` [F1, 2-Bromo-4,5-dihydro-1H-pyrrolo[2,3-f]isoquinoline-3-carboxylic acid ethyl ester hydrobromide] here?
**A.** < 1000 nM

**Q.** For `Cc1ccccc1-c1c(C(N)=O)c2c(n1C)-c1ccncc1CC2` [F5, 1-Methyl-2-o-tolyl-4,5-dihydro-1H-pyrrolo[2,3-f]isoquinoline-3-carboxylic acid amide], which IC50 is on record?
**A.** < 100 nM

**Q.** For `Cn1c2c(c(C(N)=O)c1-c1ccccc1)CCc1cnc(N)nc1-2` [N4, 8-Amino-1-methyl-2-phenyl-4,5-dihydro-1H-1,7,9-triaza-cyclopenta[a]naphthalene-3-carboxylic acid amide], which IC50 is on record?
**A.** < 1000 nM

**Q.** With `NC(=O)c1c(-c2ccccc2)[nH]c2c1ccc1cnc(N)nc12` [N9, 8-Amino-2-phenyl-1H-1,7,9-triaza-cyclopenta[a]naphthalene-3-carboxylic acid amide] as the compound, how does the IC50 read?
**A.** < 100 nM

**Q.** Which IC50 does the source give for `O=C(O)c1c[nH]c2c1CCc1cnccc1-2` [E6, 4,5-Dihydro-1H-pyrrolo[2,3-f]isoquinoline-3-carboxylic acid] here?
**A.** < 1000 nM

**Q.** With `Cn1c(-c2ccccc2)c(C(N)=O)c2ccc3cnc(N)nc3c21` [N10, 8-Amino-1-methyl-2-phenyl-1H-1,7,9-triaza-cyclopenta[a]naphthalene-3-carboxylic acid amide] as the compound, how does the IC50 read?
**A.** < 100 nM

**Q.** Which IC50 does the source give for `Cn1c(Cl)c(C(N)=O)c2ccc3[nH]ncc3c21` [C1, 2-Chloro-1-methyl-1,6-dihydro-1,6,7-triaza-as-indacene-3-carboxylic acid amide] here?
**A.** < 100 nM
